The values that follow come from patent US6743937B2, “Efficient method of synthesizing combretastatin A-4 prodrugs” (OxiGene, Inc., priority 2000, dated 2004).

Series [1] in a line: Moisture sorption at 25° C. It counts as physicochemical. The following applies: for Loss on drying at 1% RH / Wt. gain at 30-70% RH / Wt. gain at > 70% RH: moisture sorption at 25° C.
A short description of series [2]: Aqueous solubility at 25° C. as a function of pH. It counts as physicochemical. The following applies: for Aqueous solubility: 25° C., based on cis-CA4P free acid.
Series [3] in a line: Solubility in organic solvents at 25° C. Type of series: physicochemical. The following applies: based on cis-CA4P free acid; for Solubility in Acetone: BQL = below quantitation limit of the HPLC method.
Series [4] in a line: Comparison of physical stability of Process A and Process B materials (DSC, TGA, powder-XRD, solubility). The following applies: based on the available data.
For series [5] the following is noted: cited from earlier work.

Take `COc1ccc(/C=C\c2cc(OC)c(OC)c(OC)c2)cc1OP(=O)([O-])[O-].[Na+].[Na+]` [Process A Product, combretastatin A-4 disodium phosphate]: the “Hygroscopicity compared between products” value in series [1] was “greater degree of hygroscopicity than the Product B product”. Besides, the “Loss on drying at 1% RH” value in series [1] is given as 5.7%. Further, the “Wt. gain at 30-70% RH” value in series [1] is 7-8.6%. For the same compound, the “Wt. gain at > 70% RH” value in series [1] was 9-30%. Further, the Aqueous solubility in series [2] (pH 0.6 (adjusted with HCl)) was determined as 2.27 mg/mL; in series [2] (pH 0.8 (adjusted with HCl)), 0.83 mg/mL; in series [2] (pH 1.2 (adjusted with HCl)) it was 0.35 mg/mL; in series [2] (pH 5.2 (adjusted with HCl)), 77.4 mg/mL; in series [2] (pH 5.6 (adjusted with HCl)), 76.8 mg/mL; in series [2] (pH 7.1 (adjusted with HCl)), 169 mg/mL. The figures for the Aqueous solubility in series [2] (pH 7.2 (adjusted with HCl)), in series [2] (pH 7.8 (adjusted with HCl)) and in series [2] (pH 9.4 (in water)) were 204 mg/mL, 208 mg/mL and 213 (in water) mg/mL, respectively. Moreover, the “Solubility in Ethanol” value in series [3] is given as “Ethanol = 0.18 mg/mL”. The “Solubility in Methanol” value in series [3] was “Methanol = 22.4 mg/mL”. Further, the “Solubility in Acetone” value in series [3] was “Acetone = 0.45 mg/mL”.
Turning to `COc1ccc(/C=C\c2cc(OC)c(OC)c(OC)c2)cc1OP(=O)([O-])[O-].[Na+].[Na+]` [Process B Product, disodium salt of combretastatin A-4 phosphate], the “Physical stability compared between products” value in series [4] is on record as “physically more stable material than Process A”. The “Loss on drying at 1% RH” value in series [1] is reported as 6.6%. For the same compound, the “Wt. gain at 30-70% RH” value in series [1] stood at 3%. Moreover, the “Wt. gain at > 70% RH” value in series [1] is “upto 30%”. In addition, the Aqueous solubility stood at 0.21 mg/mL in series [2] (pH 0.8 (adjusted with HCl)); 0.25 mg/mL in series [2] (pH 0.97 (adjusted with HCl)); 1.61 mg/mL in series [2] (pH 2.20 (adjusted with HCl)); 5.35 mg/mL in series [2] (pH 3.26 (adjusted with HCl)); 34.7 mg/mL in series [2] (pH 6.96 (adjusted with HCl)); 81.2 mg/mL in series [2] (pH 7.28 (adjusted with HCl)). Also, the Aqueous solubility in series [2] (pH 7.35 (adjusted with HCl)) is given as 94.3 mg/mL; in series [2] (pH 8.40 (adjusted with HCl)), 115 mg/mL; in series [2] (pH 9.4 (in water)) it was 118 (in water) mg/mL. For the same compound, the “Solubility compared between products” value in series [2] (both aqueous and organic solvents at 25° C.) is listed as “consistently lower solubility than the Process A product”. Also, the “Solubility in Ethanol” value in series [3] is recorded as “Ethanol = 0.096 mg/mL”. Besides, the “Solubility in Methanol” value in series [3] is recorded as “Methanol = 1.77 mg/mL”. Further, the “Solubility in Acetone” value in series [3] is “Acetone = BQL^$”.
Take `COc1ccc(/C=C\c2cc(OC)c(OC)c(OC)c2)cc1O` [combretastatin A-4]: the Solubility in water entry in series [5] was “extremely poor solubility in water”.
